# Target: T1, TNIK (Homo sapiens, UniProt Q9UKE5)
# T1 construct: purchased Promega V4158
# Test: ADP-Glo Kinase Assay, inhibition activity on TNIK
# Format: biochemical
# Conditions: read-out: TNIK
# Experimental: The inhibition activities on TNIK, IKKε and TBK1 were measured by a luminometer, TNIK/IKKε/TBK1 Kinase Enzyme System (Promega, Ca# V4158; Invitrogen, PR8031B, Promega, Ca# V3991) and ADP-Glo Kinase Assay using ADP-Glo™ Kinase Analysis Kit (Promega, Ca# V9101) and a kinase reaction buffer [40 mM Tris(pH 7.5), 20 mM MgCl2, 0.1 mg/mL BSA] in accordance with the manufacturer's protocol.
# T1 sequence (Q9UKE5 1-367 limits assumed): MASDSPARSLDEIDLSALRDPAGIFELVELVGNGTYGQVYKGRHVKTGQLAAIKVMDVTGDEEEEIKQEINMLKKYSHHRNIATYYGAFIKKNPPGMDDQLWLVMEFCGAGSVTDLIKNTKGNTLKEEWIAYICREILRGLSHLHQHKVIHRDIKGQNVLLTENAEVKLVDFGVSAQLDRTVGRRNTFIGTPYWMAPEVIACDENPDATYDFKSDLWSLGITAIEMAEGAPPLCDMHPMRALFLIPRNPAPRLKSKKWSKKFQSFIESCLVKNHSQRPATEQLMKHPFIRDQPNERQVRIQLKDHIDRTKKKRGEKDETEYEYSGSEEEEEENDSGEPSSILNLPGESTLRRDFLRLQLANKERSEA
row,Compound,IC50 [nM]
1,"COc1ccccc1-c1ccc(NC(=O)c2ccc(NCCN3CCCC3)cc2)c2c1CNC2=O [Example 318, N-(7-(2-methoxyphenyl)-3-oxoisoindolin-4-yl)-4-((2-(pyrrolidin-1-yl)ethyl)amino)benzamide]",260
2,"CN1CCN(c2ccc(C(=O)Nc3ccc(-c4ccccc4)c4c3C(=O)NC4)cc2)CC1 [Example 319, 4-(4-Methylpiperazin-1-yl)-N-(3-oxo-7-phenylisoindolin-4-yl)benzamide]",2700
3,"O=C(Nc1ccc(-c2ccccc2)c2c1C(=O)NC2)c1ccc(N2CCOCC2)cc1 [Example 320, 4-Morpholino-N-(3-oxo-7-phenylisoindolin-4-yl)benzamide]",8800
4,"COCCNc1ccc(C(=O)Nc2ccc(-c3ccccc3)c3c2C(=O)NC3)cc1 [Example 321, 4-((2-Methoxyethyl)amino)-N-(3-oxo-7-phenylisoindolin-4-yl) benzamide]",500
5,"O=C(Nc1ccc(-c2ccccc2)c2c1C(=O)NC2)c1ccc(NCCN2CCOCC2)cc1 [Example 322, 4-((2-Morpholinoethyl)amino)-N-(3-oxo-7-phenylisoindolin-4-yl)benzamide]",340
6,"COc1ccccc1-c1ccc(NC(=O)c2ccc(N3CCOCC3)cc2)c2c1CNC2=O [Example 323, N-(7-(2-methoxyphenyl)-3-oxoisoindolin-4-yl)-4-morpholino benzamide]",370
7,"COCCNc1ccc(C(=O)Nc2ccc(-c3ccccc3OC)c3c2C(=O)NC3)cc1 [Example 324, 4-((2-Methoxyethyl)amino)-N-(7-(2-methoxyphenyl)-3-oxoisoindolin-4-yl)benzamide]",300
8,"COc1ccccc1-c1ccc(NC(=O)c2ccc(N3CCN(C)CC3)cc2)c2c1CNC2=O [Example 325, N-(7-(2-methoxyphenyl)-3-oxoisoindolin-4-yl)-4-(4-methylpiperazin-1-yl)benzamide]",370
9,COc1ccccc1-c1ccc(NC(=O)c2ccc(NCCN3CCOCC3)cc2)c2c1CNC2=O [Example 326],93
10,"O=C(Nc1ccc(-c2ccccc2)c2c1C(=O)NC2)c1ccc(NCCCN2CCOCC2)cc1 [Example 327, 4-((3-Morpholinopropyl)amino)-N-(3-oxo-7-phenylisoindolin-4-yl)benzamide]",700
11,COc1ccccc1-c1ccc(NC(=O)c2ccc(NCCCN3CCOCC3)cc2)c2c1CNC2=O [Example 328],400
12,"CN1CCN(CCCNc2ccc(C(=O)Nc3ccc(-c4ccccc4)c4c3C(=O)NC4)cc2)CC1 [Example 329, 4-((3-(4-Methylpiperazin-1-yl)propyl)amino)-N-(3-oxo-7-phenylisoindolin-4-yl)benzamide]",440
13,"COc1ccccc1-c1ccc(NC(=O)c2ccc(NCCCN3CCN(C)CC3)cc2)c2c1CNC2=O [Example 330, N-(7-(2-methoxyphenyl)-3-oxoisoindolin-4-yl)-4-((3-(4-methylpiperazin-1-yl)propyl)amino)benzamide]",510
14,"COCCCNc1ccc(C(=O)Nc2ccc(-c3ccccc3)c3c2C(=O)NC3)cc1 [Example 331, 4-((3-Methoxypropyl)amino)-N-(3-oxo-7-phenylisoindolin-4-yl) benzamide]",790
15,"COCCCNc1ccc(C(=O)Nc2ccc(-c3ccccc3OC)c3c2C(=O)NC3)cc1 [Example 332, N-(7-(2-methoxyphenyl)-3-oxoisoindolin-4-yl)-4-((3-methoxypropyl)amino)benzamide]",510
16,"O=C(Nc1ccc(-c2ccccc2)c2c1C(=O)NC2)c1ccc(NCc2cccs2)cc1 [Example 333, N-(3-oxo-7-phenylisoindolin-4-yl)-4-((thiophen-2-ylmethyl)amino)benzamide]",1600
17,"COc1ccccc1-c1ccc(NC(=O)c2ccc(NCc3cccs3)cc2)c2c1CNC2=O [Example 334, N-(7-(2-methoxyphenyl)-3-oxoisoindolin-4-yl)-4-((thiophen-2-ylmethyl)amino)benzamide]",410
18,"CN(C)CCCNc1ccc(C(=O)Nc2ccc(-c3ccco3)c3c2C(=O)NC3)cc1 [Example 335, 4-((3-(Dimethylamino)propyl)amino)-N-(7-(furan-2-yl)-3-oxoisoindolin-4-yl)benzamide]",430
19,"COCCCNc1ccc(C(=O)Nc2ccc(-c3ccco3)c3c2C(=O)NC3)cc1 [Example 336, N-(7-(furan-2-yl)-3-oxoisoindolin-4-yl)-4-((3-methoxypropyl)amino)benzamide]",980
20,"O=C(Nc1ccc(-c2ccco2)c2c1C(=O)NC2)c1ccc(NCCCN2CCOCC2)cc1 [Example 337, N-(7-(furan-2-yl)-3-oxoisoindolin-4-yl)-4-((3-morpholinopropyl)amino)benzamide]",560
21,"O=C(Nc1ccc(-c2ccco2)c2c1C(=O)NC2)c1ccc(NCCCN2CCCCC2)cc1 [Example 338, N-(7-(furan-2-yl)-3-oxoisoindolin-4-yl)-4-((3-(piperidin-1-yl)propyl)amino)benzamide]",370

row,Compound,IC50 [nM]
1,"O=C(Nc1ccc(-c2ccco2)c2c1C(=O)NC2)c1ccc(NCCCN2CCCC2)cc1 [Example 339, N-(7-(furan-2-yl)-3-oxoisoindolin-4-yl)-4-((3-(pyrrolidin-1-yl)propyl)amino)benzamide]",310
2,"NC1CCN(c2ccc(C(=O)Nc3ccc(-c4ccccc4)c4c3C(=O)NC4)cc2)CC1 [Example 340, 4-(4-Aminopiperidin-1-yl)-N-(3-oxo-7-phenylisoindolin-4-yl) benzamide]",680
3,"CN(C)CCNc1ccc(C(=O)Nc2ccc(-c3cccc4ncoc34)c3c2C(=O)NC3)cc1 [Example 341, N-(7-(benzo[d]oxazol-7-yl)-3-oxoisoindolin-4-yl)-4-((2-(dimethylamino)ethyl)amino)benzamide]",38
4,"O=C(Nc1ccc(-c2cccc3ncoc23)c2c1C(=O)NC2)c1ccc(NCCN2CCCCC2)cc1 [Example 342, N-(7-(benzo[d]oxazol-7-yl)-3-oxoisoindolin-4-yl)-4-((2-(piperidin-1-yl)ethyl)amino)benzamide]",43
5,"O=C(Nc1ccc(-c2cccc3ncoc23)c2c1C(=O)NC2)c1ccc(NCCCN2CCCCC2)cc1 [Example 343, N-(7-(benzo[d]oxazol-7-yl)-3-oxoisoindolin-4-yl)-4-((3-(piperidin-1-yl)propyl)amino)benzamide]",42
6,"O=C(Nc1ccc(-c2cccc3ncoc23)c2c1C(=O)NC2)c1ccc(NCCN2CCCCCC2)cc1 [Example 344, 4-((2-(Azepan-1-yl)ethyl)amino)-N-(7-(benzo[d]oxazol-7-yl)-3-oxoisoindolin-4-yl)benzamide]",61
7,"O=C(Nc1ccc(-c2ccccc2)c2c1C(=O)NC2)c1ccc(OCCN2CCOCC2)cc1 [Example 345, 4-(2-Morpholinoethoxy)-N-(3-oxo-7-phenylisoindolin-4-yl) benzamide]",1140
8,"O=C(Nc1cccc2c1C(=O)NC2)c1ccc(NCCN2CCCC2)cc1 [Example 346, N-(3-oxoisoindolin-4-yl)-4-((2-(pyrrolidin-1-yl)ethyl)amino) benzamide]",6170
9,"COc1cccc(-c2ccc(NC(=O)c3ccc(OCCN4CCOCC4)cc3)c3c2CNC3=O)c1OC [Example 347, N-(7-(2,3-dimethoxyphenyl)-3-oxoisoindolin-4-yl)-4-(2-morpholinoethoxy)benzamide]",200
10,"Nc1cccc(-c2ccc(NC(=O)c3ccc(NCCN4CCOCC4)cc3)c3c2CNC3=O)c1O [Example 348, N-(7-(3-amino-2-hydroxyphenyl)-3-oxoisoindolin-4-yl)-4-((2-morpholinoethyl)amino)benzamide]",3180
11,"COc1ccccc1-c1ccc(NC(=O)c2ccc(NCCN3CCCCCC3)cc2)c2c1CNC2=O [Example 349, 4-((2-(Azepan-1-yl)ethyl)amino)-N-(7-(2-methoxyphenyl)-3-oxoisoindolin-4-yl)benzamide]",240
12,"COc1cccc(-c2ccc(NC(=O)c3ccc(NCCN4CCCCCC4)cc3)c3c2CNC3=O)c1OC [Example 350, 4-((2-(Azepan-1-yl)ethyl)amino)-N-(7-(2,3-dimethoxyphenyl)-3-oxoisoindolin-4-yl)benzamide]",61
13,"CN(C)CCCNc1ccc(C(=O)Nc2ccc(-c3ccccc3O)c3c2C(=O)NC3)cc1 [Example 351, 4-((3-(Dimethylamino)propyl)amino)-N-(7-(2-hydroxyphenyl)-3-oxoisoindolin-4-yl)benzamide]",960
14,"COc1ccccc1-c1ccc(NC(=O)c2ccc(NCCO)cc2)c2c1CNC2=O [Example 352, 4-((2-Hydroxyethyl)amino)-N-(7-(2-methoxyphenyl)-3-oxoisoindolin-4-yl)benzamide]",84
15,"O=C(Nc1ccc(-c2ccccc2O)c2c1C(=O)NC2)c1ccc(NCCO)cc1 [Example 353, 4-((2-Hydroxyethyl)amino)-N-(7-(2-hydroxyphenyl)-3-oxoisoindolin-4-yl)benzamide]",370
16,COc1ccccc1-c1ccc(NC(=O)c2ccc(NCCCO)cc2)c2c1CNC2=O [Example 354],220
17,O=C(Nc1ccc(-c2ccccc2O)c2c1C(=O)NC2)c1ccc(NCCCO)cc1 [Example 355],590
18,"COc1ccccc1-c1ccc(NC(=O)c2ccc(NCCCCO)cc2)c2c1CNC2=O [Example 356, 4-((4-Hydroxybutyl)amino)-N-(7-(2-methoxyphenyl)-3-oxoisoindolin-4-yl)benzamide]",250
19,"O=C(Nc1ccc(-c2ccccc2O)c2c1C(=O)NC2)c1ccc(NCCCCO)cc1 [Example 357, 4-((4-Hydroxybutyl)amino)-N-(7-(2-hydroxyphenyl)-3-oxoisoindolin-4-yl)benzamide]",640
20,"CNCCN(C)c1ccc(C(=O)Nc2ccc(-c3ccccc3)c3c2C(=O)NC3)cc1 [Example 358, 4-(Methyl(2-(methylamino)ethyl)amino)-N-(3-oxo-7-phenylisoindolin-4-yl)benzamide]",1100
